Measured values: patent US7737155B2, “Nitrogen-containing heterocyclic compounds and methods of use thereof” (Schering Corporation, priority 2005, dated 2010)
Where two headings read alike, the source gives them in different places.

Molecular target: recombinant human nicotinic acid receptor (NAR) (Homo sapiens, UniProt Q8TDS4)
Assay: Nicotinic Acid Receptor Assay: inhibition of forskolin-stimulated cAMP accumulation in CHO cells (MesoScale Discovery cAMP kit)
Format: cell-based
Settings: CHO cells expressing recombinant human NAR
Method: The nicotinic acid receptor agonist activity of the inventive compounds was determined by following the inhibition of forskolin-stimulated cAMP accumulation in cells using the MesoScale Discovery cAMP detection kit following the manufacture's protocol. Briefly, Chinese Hamster Ovary (CHO) cells expressing recombinant human nicotinic acid receptor (NAR) were harvested enzymatically, washed 1× in phosphate buffered saline (PBS) and resuspended in PBS containing 0.5 mM IBMX at 3×10^6 cells/mL. Ten μL of cell suspension was added to each well of a 384-well plate which contained 10 μL of test compounds. Test compounds were diluted with PBS containing 6 μM of forskolin. Plates were incubated for 30 minutes at room temperature after the addition of cells. Lysis buffer containing cAMP-Tag was added to each well (10 μL/well) as per the manufacturer's protocol. Plates were then incubated from 45 minutes to overnight. Prior to reading, 10 μL of read buffer was added to each well, and the plate was read in a Sector 6000 plate imager. The signal was converted to cAMP concentration using a standard curve run on each plate.

[1] = forskolin-stimulated cAMP, read-out: NA EC50 camp
[2] = NA EC50 camp (nM), forskolin-stimulated cAMP
[3] = inhibition of forskolin-stimulated cAMP accumulation, read-out: NA EC50 camp

Chain of recombinant human nicotinic acid receptor (NAR) (Q8TDS4 whole entry): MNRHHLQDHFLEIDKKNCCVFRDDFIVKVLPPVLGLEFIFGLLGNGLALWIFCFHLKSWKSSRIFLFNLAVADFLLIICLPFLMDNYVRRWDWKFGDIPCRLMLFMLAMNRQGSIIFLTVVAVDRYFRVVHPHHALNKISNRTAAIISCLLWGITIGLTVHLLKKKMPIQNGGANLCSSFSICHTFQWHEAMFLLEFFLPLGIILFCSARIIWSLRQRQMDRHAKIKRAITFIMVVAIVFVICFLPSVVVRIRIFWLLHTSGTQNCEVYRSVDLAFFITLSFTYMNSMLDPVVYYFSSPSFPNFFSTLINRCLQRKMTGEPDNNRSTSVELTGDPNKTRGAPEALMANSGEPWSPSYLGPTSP

EC50 [1]	Structure (SMILES)	other results
100 to 1000 nM	CCc1cc(=O)oc2nc(OCc3ncoc3-c3ccccc3)[nH]c(=O)c12 [Compound 540]	
> 1000 nM	CCc1cc(=O)oc2nc(OCc3cc(C)c(OC)c(C)n3)[nH]c(=O)c12 [Compound 511]	
	CCC#CCOc1nc2oc(=O)cc(Cc3ccccc3)c2c(=O)[nH]1 [Compound 615]	EC50 [2]: 100 to 1000 nM
	CCCCc1cc(=O)oc2[nH]c(=O)[nH]c(=O)c12 [Compound 102]	EC50 [3]: 31 nM
> 1000 nM	CCc1cc(=O)oc2nc(OCCOC3CCCCC3)[nH]c(=O)c12 [Compound 610]	
100 to 1000 nM	CCc1cc(=O)oc2nc(OCc3cc4ccccc4s3)[nH]c(=O)c12 [Compound 538]	
100 to 1000 nM	CCc1cc(=O)oc2nc(OCc3ccccc3-n3ccnc3)[nH]c(=O)c12 [Compound 570]	
	CCn1c(=O)[nH]c2oc(=O)cc(CCCC3CC3)c2c1=O [Compound 782]	EC50 [3]: 94 nM
	COn1c(=O)nc(OCCF)c2c(CCC3CCC3)cc(=O)oc21 [Compound 826]	EC50 [3]: 3250 nM
	O=c1[nH]c(=O)c2c(CC3CC3)cc(=O)oc2[nH]1 [Compound 117]	EC50 [3]: 155 nM
	O=c1cc(CCCC2CC2)c2c(=O)n(CF)c(=O)[nH]c2o1 [Compound 802]	EC50 [3]: 12 nM
> 1000 nM	CCCCc1c(-c2cccc(OC)c2)c(=O)oc2[nH]c(=O)[nH]c(=O)c12 [Compound 707]	
	O=c1nc(OCF)c2c(CCCC3CC3)cc(=O)oc2[nH]1 [Compound 789]	EC50 [3]: 88 nM
100 to 1000 nM	CCOC(=O)c1cccc(-c2ccccc2COc2nc3oc(=O)cc(CC)c3c(=O)[nH]2)c1 [Compound 547]	
100 to 1000 nM	CCc1cc(=O)oc2nc(OC[C@@H](OC)c3ccccc3)[nH]c(=O)c12 [Compound 618]	
> 1000 nM	CCc1c(C#Cc2ccccc2)c(=O)oc2[nH]c(=O)[nH]c(=O)c12 [Compound 219]	
100 to 1000 nM	CC1CC(c2cc(=O)oc3[nH]c(=O)[nH]c(=O)c23)C1 (centres unmarked) [Compound 296]	
100 to 1000 nM	COCC#CCOc1nc2oc(=O)cc(Cc3ccc(F)cc3)c2c(=O)[nH]1 [Compound 661]	
100 to 1000 nM	CCc1cc(=O)oc2nc(OCc3ccc(Br)cn3)[nH]c(=O)c12 [Compound 536]	
> 1000 nM	CCc1cc(=O)oc2nc(OCC(C)(C)S(=O)(=O)c3ccc(Cl)cc3)[nH]c(=O)c12 [Compound 663]	
	CCCCc1cc(=O)oc2[nH]c(=O)nc(OCF)c12 [Compound 788]	EC50 [3]: 38.5 nM

EC50 [1]	Structure (SMILES)	other results
> 1000 nM	CCc1cc(=O)oc2nc(OCc3ccnc(NC(=O)C(C)(C)C)c3)[nH]c(=O)c12 [Compound 653]	
100 to 1000 nM	CCc1cc(=O)oc2nc(OCc3cccc(-c4ccc(OC)c(OC)c4)c3)[nH]c(=O)c12 [Compound 565]	
100 to 1000 nM	CCc1cc(=O)oc2nc(OCCOc3cccc(C)c3)[nH]c(=O)c12 [Compound 598]	
100 to 1000 nM	CCc1cc(=O)oc2nc(OCc3ccccc3-c3cccc(C(=O)N(C)C)c3)[nH]c(=O)c12 [Compound 552]	
	CCc1cc(=O)oc2nc(OCCOC)[nH]c(=O)c12 [Compound 524]	EC50 [2]: 100 to 1000 nM
> 1000 nM	CCc1cc(=O)oc2nc(OCc3cc(F)cc(F)c3)[nH]c(=O)c12 [Compound 506]	
	CSCCCc1cc(=O)oc2nc(CF)[nH]c(=O)c12 [Compound 751]	EC50 [3]: 487 nM
	CCCCCc1cc(=O)oc2nc(C(F)F)nc(OCc3ccc(OC)cc3)c12 [Compound 742]	EC50 [3]: 1070 nM
0.001 to 100 nM	CCCCCc1cc(=O)oc2nc(ONC(=O)OCC)[nH]c(=O)c12 [Compound 695]	
0.001 to 100 nM	O=c1cc(CCC2CCCC2)c2c(=O)n(C3CCC3)c(=O)[nH]c2o1 [Compound 241]	EC50 [3]: 13 nM
100 to 1000 nM	CCc1cc(=O)oc2nc(OCc3ocnc3C)[nH]c(=O)c12 [Compound 513]	
100 to 1000 nM	O=c1[nH]c(=O)c2c(CCCOCC3CC3)cc(=O)oc2[nH]1 [Compound 273]	
	COCCn1c(=O)[nH]c2oc(=O)cc(CCC3CC3)c2c1=O [Compound 800]	EC50 [3]: > 10000 nM
0.001 to 100 nM	O=c1[nH]c(=O)c2c(CCc3cccs3)cc(=O)oc2[nH]1 [Compound 229]	
100 to 1000 nM	CCc1cc(=O)oc2nc(O[C@H](C)c3ccc4ccccc4c3)[nH]c(=O)c12 [Compound 500]	
	O=c1cc(CCCC2CC2)c2c(=O)[nH]c(C(F)F)nc2o1 [Compound 740]	EC50 (NA EC50 camp, inhibition of forskolin-stimulated cAMP accumulation): 130 nM
> 1000 nM	CCc1cc(=O)oc2nc(OCC3CCCO3)[nH]c(=O)c12 (centres unmarked) [Compound 601]	
> 1000 nM	CCc1cc(=O)oc2nc(O[C@H](C)C#CC(=O)OCc3ccccc3)[nH]c(=O)c12 [Compound 635]	
	CCCCc1cc(=O)oc2[nH]c(=O)n(N3CCOCC3)c(=O)c12 [Compound 797]	EC50 [3]: > 1000 nM
> 1000 nM	CCc1cc(=O)oc2nc(OCCc3cccc4ccccc34)[nH]c(=O)c12 [Compound 537]	
100 to 1000 nM	CCc1cc(=O)oc2nc(OCCO)[nH]c(=O)c12 [Compound 643]	

EC50 [1]	Structure (SMILES)	other results
> 1000 nM	O=c1[nH]c(=O)c2c(CCCOC3CCCCC3)cc(=O)oc2[nH]1 [Compound 287]	
100 to 1000 nM	O=c1cc(CCCCC2CC2)c2c(=O)n(C3CCC3)c(=O)[nH]c2o1 [Compound 200]	
0.001 to 100 nM	CCc1cc(=O)oc2nc(OCc3cc(Cl)ccc3OC)[nH]c(=O)c12 [Compound 507]	
> 1000 nM	CC(C)(C)CCc1cc(=O)oc2[nH]c(=O)[nH]c(=O)c12 [Compound 263]	
	CCC#CC(C)Oc1nc2oc(=O)cc(CCCC3CC3)c2c(=O)[nH]1 (centres unmarked) [Compound 718]	EC50 [3]: 162 nM
0.001 to 100 nM	CCc1cc(=O)oc2nc(OC(C)c3ccc(-c4ccccc4)cc3F)[nH]c(=O)c12 (centres unmarked) [Compound 569]	
0.001 to 100 nM	COCC#CCOc1nc2oc(=O)cc(Cc3cccc(F)c3)c2c(=O)[nH]1 [Compound 684]	
> 1000 nM	CCOC(=O)COc1nc2oc(=O)cc(CC)c2c(=O)[nH]1 [Compound 519]	
100 to 1000 nM	CCCCc1c(-c2ccccc2)c(=O)oc2[nH]c(=O)[nH]c(=O)c12 [Compound 292]	EC50 [3]: 300 nM
100 to 1000 nM	CCc1cc(=O)oc2nc(OCC#CC(CC)OC)[nH]c(=O)c12 (centres unmarked) [Compound 669]	
> 1000 nM	CCCCc1c(-c2ccc(Cl)cc2)c(=O)oc2[nH]c(=O)[nH]c(=O)c12 [Compound 705]	
> 1000 nM	CCc1cc(=O)oc2nc(OCc3cc4c(C)nn(C)c4s3)[nH]c(=O)c12 [Compound 646]	
	COCCn1c(=O)[nH]c(=O)c2c(CCC3CC3)cc(=O)oc21 [Compound 801]	EC50 [3]: > 10000 nM
100 to 1000 nM	O=c1cc(CCc2cccs2)c2c(=O)n(C3CCC3)c(=O)[nH]c2o1 [Compound 282]	
100 to 1000 nM	CCc1cc(=O)oc2nc(OCCCOc3ccccc3)[nH]c(=O)c12 [Compound 596]	
100 to 1000 nM	CCc1cc(=O)oc2nc(OCc3csc(-c4cccs4)n3)[nH]c(=O)c12 [Compound 541]	
0.001 to 100 nM	CCc1cc(=O)oc2nc(OCCOCc3csc4ccccc34)[nH]c(=O)c12 [Compound 662]	
0.001 to 100 nM	CCOCCCc1cc(=O)oc2[nH]c(=O)[nH]c(=O)c12 [Compound 239]	
> 1000 nM	CCc1cc(=O)oc2nc(OCCS(C)(=O)=O)[nH]c(=O)c12 [Compound 588]	
> 1000 nM	CCc1cc(=O)oc2nc(OCc3cnco3)[nH]c(=O)c12 [Compound 657]	
> 1000 nM	CCc1c(-c2ccccc2)c(=O)oc2[nH]c(=O)n(C3CCC3)c(=O)c12 [Compound 203]	

EC50 [1]	Structure (SMILES)	other results
	CCCCc1cc(=O)oc2c1c(=O)[nH]c(=O)n2N1CCOCC1 [Compound 796]	EC50 [3]: > 10000 nM
	COn1c(=O)[nH]c2oc(=O)cc(CCC3CCCC3)c2c1=O [Compound 772]	EC50 [3]: 39 nM
0.001 to 100 nM	CCCCc1cc(=O)oc2nc(OCC#CC(C)O)[nH]c(=O)c12 (centres unmarked) [Compound 680]	
> 1000 nM	CCn1c(=O)[nH]c(=O)c2c(C)cc(=O)oc21 [Compound 291]	
	C#CCCCc1cc(=O)oc2[nH]c(=O)[nH]c(=O)c12 [Compound 128]	EC50 [3]: 6.3 nM
100 to 1000 nM	CCc1cc(=O)oc2nc(OCCOc3ccccc3F)[nH]c(=O)c12 [Compound 614]	
	CCc1cc(=O)oc2nc(OCC#CC3CCCCC3)[nH]c(=O)c12 [Compound 638]	EC50 [2]: 100 to 1000 nM
100 to 1000 nM	CC1(CCc2cc(=O)oc3[nH]c(=O)[nH]c(=O)c23)CC1 [Compound 272]	
100 to 1000 nM	CCc1cc(=O)oc2nc(OCc3cc(Br)cs3)[nH]c(=O)c12 [Compound 534]	
	CCCCc1cc(=O)oc2nc(OCC#CC(O)CC)[nH]c(=O)c12 (centres unmarked) [Compound 736]	EC50 [3]: 32.9 nM
100 to 1000 nM	CCc1cc(=O)oc2nc(OCCSc3ccccn3)[nH]c(=O)c12 [Compound 655]	
100 to 1000 nM	O=c1cc(CCCCC2CC2)c2c(=O)[nH]c(=O)n(C3CCC3)c2o1 [Compound 210]	
100 to 1000 nM	CCc1noc(C)c1COc1nc2oc(=O)cc(CCC(C)C)c2c(=O)[nH]1 [Compound 688]	
100 to 1000 nM	CCOC(=O)NOc1nc2oc(=O)cc(CCC3CCCC3)c2c(=O)[nH]1 [Compound 693]	
100 to 1000 nM	O=c1[nH]c(=O)c2c(C3CC3)cc(=O)oc2[nH]1 [Compound 283]	
> 1000 nM	O=c1[nH]c(=O)c2c(CCCOc3ccccc3)cc(=O)oc2[nH]1 [Compound 208]	
100 to 1000 nM	CCc1cc(=O)oc2nc(OCc3ccc(C)cc3C)[nH]c(=O)c12 [Compound 504]	
100 to 1000 nM	COc1ccc(-c2cc(CCCc3cc(=O)oc4[nH]c(=O)[nH]c(=O)c34)on2)cc1 [Compound 261]	
